In the NIST ThermoML archive (doi:10.1021/je060271a):

Settings: 283.15 K, Liquid, Vibrating tube method

CCCCCC(=O)OCC(COC(=O)CCCCC)(COC(=O)CCCCC)COC(=O)CCCCC [pentaerythritol tetrahexanoate]
Settings | mass density [kg/m3]
25591 kPa | 1018.3
25610 kPa | 1018.3
25634 kPa | 1018.4
25653 kPa | 1018.5
25672 kPa | 1018.4
25696 kPa | 1018.4
25716 kPa | 1018.4
25738 kPa | 1018.5
25757 kPa | 1018.5
25774 kPa | 1018.5
25793 kPa | 1018.4
25815 kPa | 1018.4
25832 kPa | 1018.4
25851 kPa | 1018.4
25872 kPa | 1018.5
25890 kPa | 1018.4
25912 kPa | 1018.6
25930 kPa | 1018.7
25948 kPa | 1018.5
25966 kPa | 1018.5
25986 kPa | 1018.5
26002 kPa | 1018.5
26022 kPa | 1018.6
26039 kPa | 1018.6
26056 kPa | 1018.6
26075 kPa | 1018.7
26091 kPa | 1018.6
26108 kPa | 1018.7
26127 kPa | 1018.6
26143 kPa | 1018.8
26160 kPa | 1018.6
26180 kPa | 1018.7
26196 kPa | 1018.6
26213 kPa | 1018.6
26233 kPa | 1018.7
26249 kPa | 1018.7
26266 kPa | 1018.8
26287 kPa | 1018.8
26303 kPa | 1018.7
26320 kPa | 1018.8
26337 kPa | 1018.8
26357 kPa | 1018.7
26374 kPa | 1018.7
26394 kPa | 1018.6
26410 kPa | 1018.8
26428 kPa | 1018.7
26448 kPa | 1018.9
26465 kPa | 1018.8
26483 kPa | 1018.7
26500 kPa | 1018.8
26521 kPa | 1018.9
26538 kPa | 1018.8
26559 kPa | 1018.9
26576 kPa | 1018.9
26593 kPa | 1018.8
26609 kPa | 1018.8
26629 kPa | 1018.9
26645 kPa | 1018.9
26661 kPa | 1019
26680 kPa | 1018.9
26696 kPa | 1018.9
26713 kPa | 1018.9
26730 kPa | 1018.9
26746 kPa | 1018.9
26766 kPa | 1019
26782 kPa | 1019
26798 kPa | 1019
26818 kPa | 1019
26834 kPa | 1019
26850 kPa | 1018.9
26870 kPa | 1019
26886 kPa | 1019
26902 kPa | 1019
26957 kPa | 1019.1
26974 kPa | 1019
26993 kPa | 1019.2
27010 kPa | 1019.1
27026 kPa | 1019
27042 kPa | 1019.2
27063 kPa | 1019.1
27080 kPa | 1019.2
27097 kPa | 1019.1
27117 kPa | 1019
27134 kPa | 1019.1
27155 kPa | 1019.2
27172 kPa | 1019.2
27188 kPa | 1019.2
27204 kPa | 1019.3
27222 kPa | 1019.2
27238 kPa | 1019.2
27253 kPa | 1019.2
27272 kPa | 1019.2
27288 kPa | 1019.3
27306 kPa | 1019.2
27322 kPa | 1019.4
27338 kPa | 1019.3
27354 kPa | 1019.3
27373 kPa | 1019.2
27388 kPa | 1019.2
27404 kPa | 1019.3
27423 kPa | 1019.3
27439 kPa | 1019.3
27458 kPa | 1019.4
27474 kPa | 1019.3
27489 kPa | 1019.4
27505 kPa | 1019.3
27524 kPa | 1019.4
27540 kPa | 1019.3
27560 kPa | 1019.3
27576 kPa | 1019.3
27592 kPa | 1019.4
27611 kPa | 1019.4
27627 kPa | 1019.3
27644 kPa | 1019.4
27660 kPa | 1019.5
27679 kPa | 1019.5
27696 kPa | 1019.4
27712 kPa | 1019.5
27732 kPa | 1019.4
27748 kPa | 1019.5
27764 kPa | 1019.6
27784 kPa | 1019.5
27800 kPa | 1019.4
27817 kPa | 1019.5
27837 kPa | 1019.5
27853 kPa | 1019.4
27869 kPa | 1019.5
27889 kPa | 1019.6
27906 kPa | 1019.6
27922 kPa | 1019.7
27942 kPa | 1019.6
27959 kPa | 1019.6
27976 kPa | 1019.5
27996 kPa | 1019.7
28012 kPa | 1019.5
28029 kPa | 1019.6
28046 kPa | 1019.7
28066 kPa | 1019.7
28083 kPa | 1019.7
28100 kPa | 1019.7
28120 kPa | 1019.6
28136 kPa | 1019.6
28153 kPa | 1019.7
28170 kPa | 1019.8
28190 kPa | 1019.8
28207 kPa | 1019.9
28225 kPa | 1019.7
28245 kPa | 1019.7
28262 kPa | 1019.7
28280 kPa | 1019.8
28297 kPa | 1019.7
28314 kPa | 1019.7
28334 kPa | 1019.8
28351 kPa | 1019.7
28371 kPa | 1019.8
28388 kPa | 1019.7
28405 kPa | 1019.9
28422 kPa | 1019.7
28443 kPa | 1019.8
28460 kPa | 1019.8
28478 kPa | 1019.8
28500 kPa | 1019.8
28517 kPa | 1019.8
28535 kPa | 1019.9
28552 kPa | 1019.9
28570 kPa | 1019.9
28591 kPa | 1019.9
28608 kPa | 1020
28629 kPa | 1019.9
28646 kPa | 1019.9
28664 kPa | 1019.9
28686 kPa | 1019.9
28703 kPa | 1020
28722 kPa | 1019.9
28744 kPa | 1019.9
28763 kPa | 1019.9
28781 kPa | 1019.9
28800 kPa | 1020
28815 kPa | 1020.1
28830 kPa | 1020.1
28848 kPa | 1020
28863 kPa | 1020
28878 kPa | 1020.2
28896 kPa | 1020
28911 kPa | 1020
28926 kPa | 1020
28944 kPa | 1020.1
28958 kPa | 1020.1
28973 kPa | 1020
28990 kPa | 1020.2
29004 kPa | 1020.2
29018 kPa | 1020.1
29035 kPa | 1020
29050 kPa | 1020.2
29064 kPa | 1020.1
29081 kPa | 1020.1
29096 kPa | 1020.3
29110 kPa | 1020.2
29127 kPa | 1020.2
29142 kPa | 1020.1
29156 kPa | 1020.1
29171 kPa | 1020.1
29188 kPa | 1020.2
29202 kPa | 1020.1
29219 kPa | 1020.3
29234 kPa | 1020.3
29248 kPa | 1020.3
29263 kPa | 1020.3
29280 kPa | 1020.2
29295 kPa | 1020.3
29313 kPa | 1020.3
29327 kPa | 1020.3
29342 kPa | 1020.3
29357 kPa | 1020.3
29375 kPa | 1020.3
29389 kPa | 1020.4
29407 kPa | 1020.3
29422 kPa | 1020.4
29436 kPa | 1020.2
29451 kPa | 1020.4
29469 kPa | 1020.3
29484 kPa | 1020.4
29499 kPa | 1020.3
29516 kPa | 1020.3
29531 kPa | 1020.5
29547 kPa | 1020.3
29564 kPa | 1020.4
29579 kPa | 1020.4
29594 kPa | 1020.4
29609 kPa | 1020.4
29627 kPa | 1020.4
29642 kPa | 1020.5
29660 kPa | 1020.5
29675 kPa | 1020.5
29690 kPa | 1020.6
29708 kPa | 1020.6
29723 kPa | 1020.4
29738 kPa | 1020.6
29754 kPa | 1020.5
29770 kPa | 1020.5
29788 kPa | 1020.5
29803 kPa | 1020.5
29821 kPa | 1020.5
29837 kPa | 1020.6
29852 kPa | 1020.6
29867 kPa | 1020.6
29886 kPa | 1020.6
29901 kPa | 1020.5
29916 kPa | 1020.5
29935 kPa | 1020.6
29950 kPa | 1020.6
29967 kPa | 1020.7
29982 kPa | 1020.5
29998 kPa | 1020.6
30016 kPa | 1020.5
30032 kPa | 1020.6
30048 kPa | 1020.6
30066 kPa | 1020.6
30082 kPa | 1020.6
30097 kPa | 1020.6
30116 kPa | 1020.6
30131 kPa | 1020.7
30147 kPa | 1020.7
30163 kPa | 1020.7
30182 kPa | 1020.7
30198 kPa | 1020.8
30214 kPa | 1020.7
30232 kPa | 1020.7
30248 kPa | 1020.8
30264 kPa | 1020.7
30280 kPa | 1020.7
30298 kPa | 1020.7
30314 kPa | 1020.9
30330 kPa | 1020.9
30349 kPa | 1020.8
30364 kPa | 1020.8
30384 kPa | 1020.9
30400 kPa | 1020.8
30416 kPa | 1020.9
30431 kPa | 1020.8
30451 kPa | 1020.8
30466 kPa | 1020.9
30482 kPa | 1020.9
30502 kPa | 1020.9
30517 kPa | 1020.9
30536 kPa | 1020.9
30552 kPa | 1020.9
30568 kPa | 1020.9
30587 kPa | 1021
